84 compounds from PubChem BioAssay AID463206 (Broad Institute, 2010) can be followed below.

SMILES strings stand for the structures. The source made the active and inactive calls.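 Rule for the calls: active = caspase luminescence falls with dose and the half-maximal concentration AC50 from the fitted curve is at or below a set limit; inconclusive = flat fit at 30 to 70% signal loss, or invalid fit; inactive = AC50 above the limit, or signal rises instead.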

In general, AC50 refers to the concentration giving half of the maximal activity seen.

This assay deals with INS-1E cytokine-induced caspase-3/7, Caspase-Glo luminescence, 48 h. In words: inhibitors of cytokine-induced caspase-3/7 activity, dose response, orthogonal assay for beta-cell apoptosis protection project, INS-1E rat cells, luminescence (AID 463206).
`COc1cc(C(=O)N/N=C(\c2ccccc2)c2ccccn2)cc(OC)c1OC`: the AC50 was > 26 µM (inactive). Take `CCOC(=O)N1CCN(S(=O)(=O)c2ccc(C(=O)NNc3nc4c(C)cc(C)cc4s3)cc2)CC1`: the AC50 is > 26 µM (inactive). The figure for `COc1ccc(Br)cc1CN1CCN(Cc2c[nH]c3ccccc23)CC1` is > 26 µM (inactive); for `Cc1c(C(C)C)c(=O)n(-c2ccc(S(=O)(=O)NCc3ccccc3)cc2)n1C` it is > 26 µM (inactive). `Cc1nc2ccccc2n1/N=C/c1ccc([N+](=O)[O-])s1`: the AC50 is > 26 µM (inactive).

For `COc1cccc(F)c1C(C[N+](=O)[O-])c1c(N)n(C)c(=O)n(C)c1=O` (centres undefined), the AC50 is > 26 µM (inactive).

For `Cc1ccc(S(=O)(=O)/N=C2\C=C(Nc3ccc(O)cc3)C(=O)c3ccccc32)cc1`, the AC50 was > 26 µM (inactive). In the case of `Cc1cc(C)c2nc(NNC(=O)c3ccc(S(=O)(=O)N4CCc5ccccc5C4)cc3)sc2c1`, the AC50 is > 26 µM (inactive).

For `Cc1ccc(-c2nc(NC(=O)c3nn(C)cc3[N+](=O)[O-])sc2C)cc1`, the AC50 was > 26 µM (inactive). With `Cc1[nH]n(-c2ccccc2)c(=O)c1/C=N/NC(=O)c1cccc(F)c1`, the AC50 was > 26 µM (inactive). The figure for `COc1cccc(/C=N/NC(=O)CNC(=O)c2cccs2)c1O` is > 26 µM (inactive); for `COc1ccc2nc3cc(Cl)ccc3c(Nc3cc(CN4CCCC4)c(O)c(CN4CCCC4)c3)c2n1` it is > 26 µM (inactive). For the compound `Cc1ccc(Nc2cc(C)nc(NCc3ccccc3)n2)cc1`, the AC50 was > 12 µM (inactive). As to `CCN1CCN(c2ccc(S(=O)(=O)N3CCCCC3)cc2NC(=O)c2ccc([N+](=O)[O-])o2)CC1`, the AC50 is > 26 µM (inactive). Regarding `O=C(Nc1cccc([N+](=O)[O-])c1)c1cc2ccccc2cc1O`, the AC50 was > 26 µM (inactive). Regarding `C[C@H](CO)N1C[C@H](C)[C@@H](CN(C)C(=O)NC2CCCCC2)Oc2c(NC(=O)Nc3ccc(C(F)(F)F)cc3)cccc2C1=O`, the AC50 is > 26 µM (inactive). The figure for `Cc1ccc(S(=O)(=O)Nc2ccc(NC(=O)Nc3cccc(C(F)(F)F)c3)cc2)cc1` is > 26 µM (inactive); for `O=C(Nc1ccc2nc3n(c(=O)c2c1)CCCCC3)c1c(F)ccc([N+](=O)[O-])c1F` it is > 26 µM (inactive); for `C(=N\Nc1ncnc2sc3c(c12)CCC3)/c1cccs1` it is > 26 µM (inactive).

In the case of `CC1CCc2c(sc3nc(C4CC4)nc(N4CCN(C(=O)c5ccco5)CC4)c23)C1` (centres undefined), the AC50 was > 26 µM (inactive). The figure for `Cc1ccc(NC(=O)/C=C/c2ccc([N+](=O)[O-])s2)c(C)c1` is 1.17 µM; for `Cn1nc(C(C)(C)C)cc1C(=O)NCc1ccc2c(c1)OCO2` it is > 26 µM (inactive).

`O=[N+]([O-])c1ccc(/C=N/Nc2ccnc3cc(Cl)ccc23)o1`: the AC50 is 19.8 µM. Consider `Cn1c(=O)[nH]c(=O)c2c1nc(N1CCN(C(c3ccccc3)c3ccccc3)CC1)n2CCO`, for which the AC50 is > 26 µM (inactive).

As for `CCCCCCc1cc2cc(-c3nnc(-c4ccccc4)o3)c(=O)oc2cc1O`, the AC50 is > 26 µM (inactive). The figure for `Cc1ccc(NC(=O)c2ccccc2NS(=O)(=O)c2ccc(Cl)s2)cc1` is > 26 µM (inactive); for `O=C(c1cnc(N2CCN(c3ccccn3)CC2)c2ccccc12)N1CCN(c2cccc(Cl)c2)CC1` it is > 26 µM (inactive); for `Clc1ccc2c(N/N=C/c3cccc(Br)c3)ccnc2c1` it is > 26 µM (inactive). In the case of `CCCCCCc1cc2cc(C(=O)Nc3ccccc3)c(=O)oc2cc1O`, the AC50 was > 26 µM (inactive).

Take `Cc1ccc2nc(-c3ccc(NC(=O)c4cccnc4)cc3)oc2c1`: the AC50 is > 26 µM (inactive). Regarding `NC1=NC[C@H](Cc2ccc(O)cc2)N1CCCCC1CCCCC1`, the AC50 is > 26 µM (inactive).

For the compound `CCOC(=O)/C(=C\c1ccc([N+](=O)[O-])cc1)C(=O)c1cc(C(C)=O)c(Nc2ccccc2)s1`, the AC50 was > 26 µM (inactive).

As for `CCCCCc1cc(=O)oc2c(C(CCN(CC)CC)c3ccc(OC)cc3)c(OC)cc(OC)c12` (centres undefined), the AC50 is 23.2 µM. On to `COc1ccc(-n2cc(-c3ccccc3)[n+]3c2CCCCC3)cc1`, for which the AC50 was > 26 µM (inactive). Take `O=C(N/N=C/c1cc(Br)c(O)c(Br)c1O)c1ccc2c(c1)OCCO2`: the AC50 is > 26 µM (inactive).

For the compound `CC1C/C(=C/c2ccncc2)C(=O)/C(=C/c2ccncc2)C1` (centres undefined), the AC50 was > 26 µM (inactive). Turning to `CC1CCc2c(sc3nc(C(C)(C)C)nc(N4CCN(C(=O)CCl)CC4)c23)C1` (centres undefined), the AC50 is > 26 µM (inactive).

For the compound `Cc1ccc(S(=O)(=O)Nc2cc(Cl)c(O)c3ncccc23)cc1`, the AC50 is > 26 µM (inactive). With `CN1/C(=C\C=N\NC(=O)c2ccc(O)cc2)C(C)(C)c2ccccc21` the figure was > 26 µM (inactive). The figure for `Cc1cc(C(=O)CSc2nc3ccccc3c(=O)n2C)c(C)n1Cc1ccc2c(c1)OCO2` is > 26 µM (inactive). As to `CCC(=O)NC(c1cc(Cl)c2cccnc2c1O)C1CC1` (centres undefined), the AC50 was > 26 µM (inactive). `COc1ccc(-c2c[n+]3c(n2-c2ccccc2)CCCCC3)cc1`: the AC50 was > 26 µM (inactive).

Regarding `Cc1cccc(N2C(=S)N=C(Nc3c(C)cccc3C)C23CCOC(C)(C)C3)c1` (centres undefined), the AC50 was > 26 µM (inactive). The figure for `Cn1c(/C=C/c2ccc([N+](=O)[O-])o2)nc2ccccc2c1=O` is > 26 µM (inactive). `Cn1c(SCC(=O)N/N=C/c2ccc([N+](=O)[O-])s2)nnc1-c1ccc(Cl)cc1`: the AC50 is > 26 µM (inactive). With `C/C(=N\NC(=O)c1cc2ccccc2cc1O)c1ccccn1` the figure was > 26 µM (inactive); with `CCN(CC)S(=O)(=O)c1cc(C)ccc1NC(=S)Nc1cccnc1`, > 26 µM (inactive); with `Cc1ccc2c(c1)Sc1c(ccc3ccccc13)N2`, > 26 µM (inactive). The figure for `O=c1c2ccccc2nc(COc2ccccc2)n1/N=C/c1cc([N+](=O)[O-])ccc1O` is > 26 µM (inactive); for `O=C(NCc1ccccn1)c1cc(-c2ccc(Cl)cc2)oc1C(F)(F)F` it is > 26 µM (inactive); for `Clc1ccc(-c2[nH]ncc2N=Nc2ccccc2)cc1` it is > 26 µM (inactive).

For the compound `Cc1cccc(CSC(Nc2ccc(F)cc2)=C(C#N)C#N)c1`, the AC50 is > 26 µM (inactive). The figure for `COc1cc(NC(=O)c2ccc([N+](=O)[O-])o2)ccc1NC(=O)c1cccs1` is > 26 µM (inactive); for `CCN1CCN(Cc2ccc(NC(=O)c3cc(NC(=O)C(=O)c4c[nH]c5ccccc45)cc(OC)c3)cc2C(F)(F)F)CC1` it is > 26 µM (inactive). With `CCN(CC)CCCNC1=C(Cl)C(=O)c2ccccc2C1=O` the figure was > 26 µM (inactive); with `Cc1ccc(/C=N/NC(=O)Cc2ccc(Cl)cc2)c(O)c1`, > 26 µM (inactive). The figure for `Cn1ncc2c(O/N=C(\N)c3ccc(C(C)(C)C)cc3)ncnc21` is > 26 µM (inactive). As for `O=C(N/N=C/c1cc(Cl)ccc1O)c1cccnc1`, the AC50 was > 26 µM (inactive). In the case of `COC(=O)c1ccc(NC(=O)c2nc(S(=O)(=O)Cc3cccc(C)c3)ncc2Cl)cc1`, the AC50 is > 26 µM (inactive). Take `Cc1ccc(C(=O)Nc2cccc3[nH]c(C(F)(F)F)nc23)cc1`: the AC50 was > 26 µM (inactive). `c1ccc(C2(Cn3ccc4ccccc43)OCCO2)cc1`: the AC50 was > 26 µM (inactive).

`COc1ccc(C(=O)N/N=C/c2ccccc2OC(=O)c2ccccc2)cc1`: the AC50 was > 26 µM (inactive). On to `Fc1ccc(CN(Cc2ccccc2)C(c2cccs2)c2nnnn2C2CCCCC2)cc1` (centres undefined), for which the AC50 is > 26 µM (inactive). Take `CC1CCN(Cc2c(C(=O)N/N=C/c3ccccc3O)nnn2-c2nonc2N)CC1`: the AC50 was > 26 µM (inactive). The figure for `COc1cccc(C(=O)N/N=C(/c2ccccc2)c2ccccn2)c1` is > 26 µM (inactive); for `O=C(NC(Nc1nc2ccc([N+](=O)[O-])cc2s1)(C(F)(F)F)C(F)(F)F)c1ccccc1` it is > 26 µM (inactive); for `O=C(N/N=C/c1sc2ccccc2c1O)c1cccc2ccccc12` it is > 26 µM (inactive).

For the compound `COc1ccc(C(C(=O)NC2CCCCC2)N(C(=O)CCl)c2cccc(Cl)c2)cc1` (centres undefined), the AC50 is > 26 µM (inactive).

For the compound `CCSCCc1nnc(NC(=O)Nc2cccc(C(F)(F)F)c2)s1`, the AC50 was > 26 µM (inactive). With `CC(=O)Nc1ccc(S(=O)(=O)Nc2ccc(N3CCCCC3)cc2)cc1` the figure was > 26 µM (inactive); with `O=C1C(=O)c2c(C(=O)c3ccccc3)coc2-c2ccccc21`, > 26 µM (inactive). `Cn1nccc1C(=O)NC1CCCc2c1cnn2-c1ccc(C(C)(C)C)cc1` (centres undefined): the AC50 is > 26 µM (inactive). On to `Cc1occc1C(=O)N/N=C/c1c(O)ccc2ccccc12`, for which the AC50 was > 26 µM (inactive). Consider `NC(N)=N/N=C/c1cn(-c2ccccc2)nc1-c1cccs1`, for which the AC50 is > 26 µM (inactive). With `Oc1ccc(N=Nc2nccs2)c(O)c1` the figure was > 26 µM (inactive); with `OCCCNc1c2ccccc2nc2ccccc12`, 7.37 µM.

Regarding `O=C(NC1(Cc2ccccc2)CCN(CCCc2ccccc2)C1=O)c1ccccc1` (centres undefined), the AC50 was > 26 µM (inactive). The figure for `CCN1C/C(=C/c2cccc([N+](=O)[O-])c2)C(=O)/C(=C/c2cccc([N+](=O)[O-])c2)C1` is > 26 µM (inactive); for `COc1ccc(O)c(/C=N/NC(=O)c2cccc(N3CCCC3=O)c2)c1` it is > 26 µM (inactive).

In the case of `NC(N)=N/N=C/c1ccc(OCc2ccccc2)cc1`, the AC50 was > 26 µM (inactive). With `Nc1nc(-c2ccccn2)nc(N)c1Cc1c(F)cccc1Cl` the figure was > 26 µM (inactive); with `CCCCNc1c(-c2cccc(-c3ccc(OC)cc3)c2)nc2ccc(C)cn12`, > 26 µM (inactive); with `O=C(C#Cc1ccccc1)Nc1cccc(F)c1`, > 26 µM (inactive).

Consider `O=S(=O)(NCc1ccncc1)c1ccc(Br)s1`, for which the AC50 is > 26 µM (inactive).
